Measured values published in patent US9296720B2, “Carboxamide-substituted heteroaryl-pyrazoles and the use thereof” (AiCuris GmbH & Co. KG, priority 2011, dated 2016).
Like-named read-outs stand apart in the source and are kept apart here.

What was measured:
Format in all cases: cell-based
HIV-1LAI Wild Type = assay: AlamarBlue viability assay, HIV-1LAI-infected MT4 cells; conditions: 10% FCS
Procedure: For the batch of a 96-well MTP, 3 million PBLs are pelletized, suspended in 1 ml of RPMI 1640 medium/10% FCS/2 mmol of L-glutamine/1% Pen/Strep, and incubated together with a suitable amount of HIV-1LA1 (NIH AIDS Research & Reference Reagent Program, Germantown, USA) for 2 hours at 37° C. (pellet infection). Non-adsorbed viruses are then washed out with PBS, the infected cells are pelletized again, and suspended in 18 ml of RPMI 1640 medium/10% FCS/2 mmol of L-glutamine/1% Pen/Strep/interleukin-2 (40 U/ml). Therefrom, 180 μl per well is pipetted into a white 96-well MTP in 20 μl of test substance in a suitable dilution. As an alternative, after preparation of the substance dilutions, the HIV is added by pipetting in the MTP together with the cells and is no longer washed out (supernatant infection). In order to avoid boundary effects, the edge wells of the MTP are not used for substance dilutions. The second vertical row of the MTP contains only infected cells (virus control), and the eleventh vertical row contains only non-infected cells (cell control) in each case in RPMI 1640 medium/10% FCS/2 mmol of L-glutamine/1% Pen/Strep/interleukin-2 (40 U/ml). The other wells of the MTP contain the compounds according to the invention in different concentrations starting from the third vertical row, from which dilution of the test substances is carried out 3^7 times in three steps up to the tenth vertical row. The test substances are dissolved in DMSO, whereby the DMSO final concentration in the test batch is ultimately 1%. The test batches are incubated at 37° C./5% CO2. After 5 and 7 days, in each case 50 μl of cell-free supernatant is drawn off from each well in order to determine the amount of p24 contained by means of p24 ELISA (HIV-1 p24^CA Antigen Capture Assay Kit, NCI-Frederick Cancer Research and Development Center, Frederick, USA). From the resulting values of the photometric analysis (450/620 nm), the EC50 values of the test substances are determined as the concentration of the treated infected cells, in which the amount of p24 is 50% of the untreated infected cells.
As an alternative, MT4 cells are used for testing test substances instead of PBLs. HIV-1LA1-infected MT4 cells (MOI 0.01, supernatant infection) are incubated according to the above-described pattern in RPMI 1640 medium with 2% or 10% FCS/2 mmol of L-glutamine/1% Pen/Strep in the presence of test substances for 5 days at 37° C./5% CO2 (20 μl of substance dilution and 80 μl of cells/virus per well). Then, 10 μl of AlamarBlue (Invitrogen, Karlsruhe, Germany) is added to each well, and MTPs are incubated for 3 hours at 37° C., before the fluorimetric analysis is done (544/590 nm). The resulting values are approximately 30,000 in the case of untreated, non-infected cells, and approximately 6,000 in the case of untreated infected cells. In the low concentration range, the EC50 values of the test substances are determined as the concentration of the treated infected cells, in which the fluorescence is 50% of the untreated non-infected cells (in each case relative to the values of the untreated infected cells). In addition, in the high concentration range, the CC50 values of the test substances are determined as the concentration of the treated infected cells, in which the fluorescence is 50% of the untreated, non-infected cells (in each case relative to the values of the untreated infected cells).

HIV-1NL4-3 Wild Type = assay: Luminescence reduction assay, MT4 cells infected with HIV-1NL4-3 luciferase reporter virus, wild type; conditions: 2% FCS
Text: (§1) For this assay, HIV-1NL4-3 reporter viruses are used, which carry the luciferase164 gene (lu164) instead of the nef gene. The viruses are generated by transfection of 293T cells with the corresponding proviral pNL4-3 plasmid (Lipofectamine Reagent, Invitrogen, Karlsruhe, Germany). Starting from the proviral plasmid-DNA, viruses with defined resistance mutations in the reverse transcriptase gene are produced with the “QuikChange II XL Site-Directed Mutagenesis Kit” (Stratagene, Cedar Creek, Tex., USA). Among other things, the following mutations are generated: A98G, A98G-K103N-V108I, A98S, F227C, F227L, G190A, G190S, K101E, K101Q-K103N, K103N, K103N-F227L, K103N-G190A, K103N-G190S, K103N-M230L, K103N-N348I, K103N-P225H, K103N-V108I, K103N-V108I-P225H, K103N-V179F-Y181C, K103N-Y181C, K103N-Y181C-G190A, L100I, L100I-K103N, L100I-K103N-V179I-Y181C, L100I-K103N-Y181C, L234I, N348I, P225H, P236L, V106A, V106A-E138K, V106A-F227C, V106A-F227L, V106I, V106I-Y188L, V106M, V108I, V179F-Y181C, V179I, V179I-Y181C, Y181C, Y181C-G190A, Y181C-M230L, Y181I, Y188L. MT4 cells infected with these reporter viruses (NIH AIDS Research and Reference Reagent Program) secrete luciferase into the medium, which makes possible the luminometric quantification of the virus replication.
(§2) For the batch of a 96-well MTP, 3 million MT4 cells are pelletized, suspended in 1 ml of RPMI 1640 medium without phenol red (Invitrogen, Karlsruhe, Germany)/10% FCS/2 mmol of L-glutamine/1% Pen/Strep (Invitrogen, Karlsruhe, Germany), and incubated together with a suitable amount of the corresponding HIV-1NL4-3 reporter virus for 2 hours at 37° C. (pellet infection). Non-adsorbed viruses are then washed out with PBS, the infected cells are pelletized again, and suspended in 8 ml of RPM 11640 medium without phenol red/2% or 10% FCS/2 mmol of L-glutamine/1% Pen/Strep. Therefrom, 80 μl per well is pipetted into a white 96-well MTP in 20 μl of test substance in a suitable dilution. In order to avoid boundary effects, the edge wells of the MTP are not used for substance dilutions. The second vertical row of the MTP contains only infected cells (virus control), and the eleventh vertical row contains only non-infected cells (cell control) in each case in RPMI 1640 medium without phenol red/2% or 10% FCS/2 mmol of L-glutamine/1% Pen/Strep. The other wells of the MTP contain the compounds according to the invention in different concentrations starting from the third vertical row, from which dilution of the test substances is carried out 3^7 times in three steps up to the tenth vertical row. The test substances are dissolved in DMSO, whereby the DMSO final concentration in the test batch is ultimately 1%. The test batches are incubated for 5 days at 37° C./5% CO2, and are luminometrically evaluated after the addition of 15 μl of Lu164-buffer (65 mmol of NaCl, 300 mmol of MES, pH 5.8, 5 mmol of glutathione and 1:200 coelenterazine (5 mg/ml in 30 μM of glutathione/DMSO) (P.J.K. GmbH, Kleinblittersdorf, Germany)). In the virus control, the resulting values are in the range of 1 million RLUs (relative light units), and in the cell control, the resulting values are 300 to 400 RLUs. The EC50 values of the test substances are determined as the concentration of the treated infected cells, in which the virus replication measured in RLUs is 50% of the untreated infected cells.

HIV-1NL4-3 K103N-Y181C = assay: Luminescence reduction assay, MT4 cells infected with HIV-1NL4-3 luciferase reporter virus, RT mutant K103N-Y181C
Text: as §1, §2

[1] = Human immunodeficiency virus 1, MT4, MT4 cells
[2] = Human immunodeficiency virus 1, MT4, read-out: EC50 (μM) MT4 Cells HIV-1NL4-3 K103N-Y181C 2% FCS, MT4 cells, HIV-1NL4-3 K103N-Y181C, 2% FCS

SMILES	EC50 (HIV-1LAI Wild Type; [1]) [µM]	EC50 (HIV-1NL4-3 Wild Type; [1]) [µM]	EC50 (HIV-1NL4-3 K103N-Y181C; [2]) [µM]	EC50 (HIV-1LAI Wild Type; MT4 cells) [µM]	EC50 (HIV-1NL4-3 Wild Type; MT4 cells) [µM]	EC50 (HIV-1NL4-3 K103N-Y181C; read-out: EC50 (μM) MT4 Cells HIV-1NL4-3 K103N-Y181C 2% FCS, MT4 cells, HIV-1NL4-3 K103N-Y181C, 2% FCS) [µM]
COc1cncc(-c2cc(C(=O)N3CNC(=O)C3)nn2-c2ccc(F)c(Cl)c2)c1 [Example 102, 1-{[1-(3-Chloro-4-fluorophenyl)-5-(5-methoxypyridin-3-yl)-1H-pyrazol-3-yl]carbonyl}imidazolidin-4-one]	0.111	0.026	0.022			
O=C1CN(C(=O)c2cc(-c3cc(Br)cc(OC(F)(F)F)c3)n(-c3cccc(Cl)n3)n2)CN1 [Example 27, 1-({5-[3-Bromo-5-(trifluoromethoxy)phenyl]-(6-chloropyridin-2-yl)-1H-pyrazol-3-yl}carbonyl)imidazolidin-4-one]	> 3.3	0.098	0.114			
O=C1CN(C(=O)c2cc(-c3cncc(C(F)(F)F)c3)n(-c3cccc(Cl)c3)n2)CN1 [Example 108, 1-({1-(3-Chlorophenyl)-5-[5-(trifluoromethyl)pyridin-3-yl]-1H-pyrazol-3-yl}carbonyl)imidazolidin-4-one]	0.036	0.052	0.093			
O=C(c1cc(-c2cc(F)cc(OC(F)(F)F)c2)n(-c2cccnc2)n1)N1CCOCC1 [Example 61, {5-[3-Fluoro-5-(trifluoromethoxy)phenyl]-1-(pyridin-3-yl)-1H-pyrazol-3-yl}(morpholin-4-yl)methanone]	0.6	0.092	0.767			
O=C(c1cc(-c2cc(F)cc(OC(F)(F)F)c2)n(-c2ccnc(Cl)c2)n1)N1CC[S+]([O-])C1 (stereo not drawn) [Example 64, {1-(2-Chloropyridin-4-yl)-5-[3-fluoro-5-(trifluoromethoxy)phenyl]-1H-pyrazol-3-yl}(1-oxido-1,3-thiazolidin-3-yl)methanone]	1.55	0.103	0.771			
Nc1ccc(-n2nc(C(=O)N3CNC(=O)C3)cc2-c2cc(F)cc(Cl)c2)cn1 [Example 12, 1-{[1-(6-Aminopyridin-3-yl)-5-(3-chloro-5-fluorophenyl)-1H-pyrazol-3-yl]carbonyl}imidazolidin-4-one]	1.79	0.189	0.377			
O=C1CN(C(=O)c2cc(-c3cncc(Cl)c3)n(-c3ccc(F)c(Cl)c3)n2)CCN1 [Example 101, 4-{[1-(3-Chloro-4-fluorophenyl)-5-(5-chloropyridin-3-yl)-1H-pyrazol-3-yl]carbonyl}piperazin-2-one]	0.034	0.016	0.088			
O=C(c1cc(-c2cc(Br)cc(OC(F)(F)F)c2)n(-c2ccnc(C(F)(F)F)c2)n1)N1CC[S+]([O-])C1 (stereo not drawn) [Example 51, {5-[3-Bromo-5-(trifluoromethoxy)phenyl]-1-[2-(trifluoromethyl)pyridin-4-yl]-1H-pyrazol-3-yl}(1-oxido-1,3-thiazolidin-3-yl)methanone]	1.93	0.249	1.05			
O=C(c1cc(-c2cc(F)cc(OC(F)(F)F)c2)n(-c2ccnc(Cl)c2)n1)N1CCS(=O)(=O)C1 [Example 65, {1-(2-Chloropyridin-4-yl)-5-[3-fluoro-5-(trifluoromethoxy)phenyl]-1H-pyrazol-3-yl}(1,1-dioxido-1,3-thiazolidin-3-yl)methanone]	0.491	0.026	0.291			
COc1cncc(-c2cc(C(=O)N3CCNC(=O)C3)nn2-c2ccc(F)c(Cl)c2)c1 [Example 103, 4-{[1-(3-Chloro-4-fluorophenyl)-5-(5-methoxypyridin-3-yl)-1H-pyrazol-3-yl]carbonyl}piperazin-2-one]	0.785	0.205	0.375			
O=C1CN(C(=O)c2cc(-c3cc(F)cc(Cl)c3)n(-c3ccncc3)n2)CN1 [Example 13, 1-{[5-(3-Chloro-5-fluorophenyl)-1-(pyridin-4-yl)-1H-pyrazol-3-yl]carbonyl}imidazolidin-4-one]	1.34	0.323	0.88			
O=C(c1cc(-c2cc(Br)cc(OC(F)(F)F)c2)n(-c2cccnc2)n1)N1CC[S+]([O-])C1 (racemic) [Example 31-1, {5-[3-Bromo-5-(trifluoromethoxy)phenyl]-1-(pyridin-3-yl)-1H-pyrazol-3-yl}(1-oxido-1,3-thiazolidin-3-yl)methanone]				0.82	0.084	0.981
COc1cc(Br)cc(-c2cc(C(=O)N3CCNC(=O)C3)nn2-c2cccnc2)c1 [Example 95]	0.033	0.005	0.054			
O=C1CN(C(=O)c2cc(-c3cc(F)cc(OC(F)(F)F)c3)n(-c3ccnc(Cl)c3)n2)CN1 [Example 62, 1-({1-(2-Chloropyridin-4-yl)-5-[3-fluoro-5-(trifluoromethoxy)phenyl]-1H-pyrazol-3-yl}carbonyl)imidazolidin-4-one]	0.352	0.044	0.066			
